Laboratory results published in US11242337B2, “Compounds useful for treating gastrointestinal tract disorders” (Ardelyx, Inc., priority 2017, dated 2022).
Where two headings read alike, the source gives them in different places.

Key:
[1] = test system: human ileum monolayer culture; test: Sustained inhibition of apical acid secretion in human organoid monolayer cell cultures (ileum); type: cell-based; conditions: 1 μM apical, dosed day 6, apical media pH day 8, vs DMSO; for inhibition at 1 µM: Homo sapiens, 48 h
Protocol: Basal media (BM) consisted of advanced DMEM/F12 containing 10 mM HEPES Invitrogen, 15630-080), 1:100 Glutamax (Invitrogen, 35050-061), and 1:100 penicillin/streptomycin (Invitrogen, 15140-122). Supplemented basal media (SBM) contained 1:100 N2 (Invitrogen, 17502-048), 1:50 B27 (Invitrogen, 12587-010), 1 mM N-acetylcysteine (Sigma, A9165), and 10 nM [Leu15]-gastrin I (Sigma, G9145). Growth factors used included 50 ng per mL mouse EGF (Peprotech, 315-09), 100 ng per mL mouse noggin (Peprotech, 250-38), 500 ng per mL human R-spondin 1 (R&D, 4645-RS), 100 ng per mL mouse Wnt-3a (R&D, 1324-WN), 20 μM. Y-27632 (Tocris, 1254), 10 mM nicotinamide (Sigma, N0636), 500 nM A83-01 (Tocris, 2939), 10 μM SB202190 (Tocris, 1264). Transwells were 0.4 μm pore polyester membrane 24-well Transwell inserts (Corning). Cultures were incubated at 37° C. in 5% CO2.
Human ileum organoids were cultured in WENRNAS (Wnt, EGF, noggin, R-spondin1, Nicotinamide, A83-01, SB202190) and typically grown for 7-12 days before being used to plate monolayer cultures. On day 0, organoid cultures embedded in Matrigel were treated with TrypLE Express to break organoids into small pieces and/or single cells. The cells were resuspended to 0.5×10^6 cells/mL in SBM containing WENRAY (Wnt, EGF, noggin, R-spondin1, A83-01, Y-27632). Following this step, 200 μL of cell suspension was plated into the apical side of a 24-well Transwell (100,000 cells/well) and 600 μL of SBM with WENRAY was added to the basolateral side. Ileum cells were differentiated with ENRA (EGF, noggin, R-spondin 1, A83-01) on day 3. The color of apical compartment turns from pink or orange to yellow due to the increase in NHE3 expression after differentiation.
Each human ileum monolayer culture well was washed twice with fresh SBM on the apical side on day 6 before compound dosing. All compound stocks were 10 mM dissolved in DMSO. Each compound stock was individually mixed with fresh SBM to reach final compound concentration 1 μM and dosed only on the apical side of the monolayer (total volume 200 μl). DMSO at the equivalent concentration was used as the vehicle control. Duplicate wells were dosed for each compound. On day 8, apical media pH was measured by pH electrode, to determine the ability of example compounds to produce sustained inhibition of NHE3 activity in a human monolayer culture system by preventing proton secretion into the apical compartment.

[2] = test system: absorption of sodium from the intestinal lumen; test: Inhibition of intestinal sodium absorption in mice; type: in vivo; conditions: CD-1 mice, 15 mg/kg oral gavage twice daily; for Fecal fluid content (Δ from vehicle): day 3, change from vehicle group mean; for response vs control in vivo at 15 mg/kg: Mus musculus, 72 h
Protocol: Urinary and fecal sodium excretions were measured to assess the ability of selected example compounds to inhibit the absorption of sodium from the intestinal lumen. In addition, an assessment of the absence or presence of diarrhea in response to compound treatment was made. Approximately eight-week old, male, CD-1 mice were purchased from Envigo (Livermore, Calif.), were housed 6 per cage and acclimated for at least 48 hours before study initiation. Animals were fed Harlan Teklad Global TD.160470 rodent chow (Madison, Wis.), standard laboratory rodent chow Harlan Teklad Global 2018 with the addition of 0.4% inorganic phosphorous. […] To initiate the study, mice were weighed and then individually placed in metabolic cages. Following a 3-day acclimation period to the metabolic cage, a 24-hr baseline collection of urine and feces was performed. […] Each day, measurements of body weight. 24-hour food intake, water intake, urine volume and wet fecal weight were recorded, along with any observation of diarrhea. Fecal samples were dried using a lyophilizer for at least 3 days, following which dry weight was recorded and fecal fluid content was calculated based on the difference between the wet and dry stool weights. Fecal fluid content on day 3 of compound treatment was calculated as a change from the vehicle group mean. For urine samples, the volumes were determined gravimetrically. Feces and urine were analyzed for sodium content by microwave plasma-atomic emission spectroscopy or ion chromatography, respectively. Urine samples were analyzed on an ion chromatography system (Thermo Fisher ICS-3000 or ICS-5000+) coupled with conductivity detectors. Chromatographic separation of cations was performed using an IonPac CS12A (Thermo Fisher) 2×250 mm analytical column with an isocratic elution using […] methanesulfonic acid. Concentrations were interpolated from a a standard curve (prepared in 10 mM HCl) for sodium ion based on retention time and peak area. Fecal sample analysis by Microwave Plasma Atomic Emission Spectrometry (MP-AES). Dry fecal samples were ground into a fine powder on a homogenizer and the ground samples (400-600 mg aliquots weighed) were digested with nitric acid by microwave method (Mars 6). These digested samples were diluted with 1% Nitric acid and analyzed on Agilent 4100 MP-AES. Concentrations were calculated relative to a standard curve (prepared in 1% Nitric acid) for sodium based on the signal intensity. Sodium was detected at a wavelength of 588.995 nm. Twenty-four-hour urinary sodium excretion (ma/24-hours) was calculated by multiplying urinary sodium concentration by 24-hour urine volume. Twenty-four-hour fecal sodium excretion (mg/24-hours) was calculated by multiplying fecal sodium concentration by 24-hour dry fecal weight. The urinary and fecal sodium excretion on day 3 of compound treatment were normalized to dietary sodium intake and expressed as a percentage of the vehicle mean.

[3] = day 3, normalized to dietary sodium intake

Compound	inhibition at 1 µM [1] [%]	further results
3-[2-(2-[2-[(4-[[(1S,2S)-4,6-Dichloro-2-[(3R)-3-[methyl(propan-2-yl)amino]piperidin-1-yl]-2,3-dihydro-1H-inden-1-yl]oxy]benzene) sulfonamido]ethoxy]ethoxy)ethyl]-1-[4-([[2-(2-[2-[(4-[[(1S,2S)-4,6-dichloro-2-[(3R)-3-[methyl(propan-2-yl)amino]piperidin-1-yl]-2,3-dihydro-1H-inden-1-yl]oxy]benzene)sulfonamido]ethoxy]ethoxy)ethyl]carbamoyl]amino)butyl]urea; bis(trifluoroacetic acid) [Example 78]	–	% inhibition (ileum) [1]: C (>70%); Fecal fluid content (Δ from vehicle) [2]: A (<5); Fecal Na Excretion (% of vehicle) [2, 3]: A (<150%); Urinary Na Excretion (% of vehicle) [2, 3]: A (>70%)
Cc1cc(S(=O)(=O)NCCOCCOCCNC(=O)NCCCCNC(=O)NCCOCCOCCNS(=O)(=O)c2ccc(O[C@H]3c4cc(Cl)cc(C)c4C[C@@H]3N(C)C)c(C)c2)ccc1O[C@H]1c2cc(Cl)cc(C)c2C[C@@H]1N(C)C [Example 17, 3-[2-(2-[2-[(4-[[(1S,2S)-6-Chloro-2-(dimethylamino)-4-methyl-2,3-dihydro-1H-inden-1-yl]oxy]-3-methylbenzene)sulfonamido]ethoxy]ethoxy)ethyl]-1-[4-([[2-(2-[2-[(4-[[(1S,2S)-6-chloro-2-(dimethylamino)-4-methyl-2,3-dihydro-1H-inden-1-yl]oxy]-3-methylbenzene)sulfonamido]ethoxy]ethoxy)ethyl]carbamoyl]amino)butyl]urea]	50 to 70	Fecal fluid content (Δ from vehicle) [2]: B (5-10); response vs control in vivo at 15 mg/kg ([2]; day 3, normalized to dietary sodium intake, read-out: Fecal Na Excretion (% of vehicle)): 150 to 200%; response vs control in vivo at 15 mg/kg ([2]; day 3, normalized to dietary sodium intake, read-out: Urinary Na Excretion (% of vehicle)): 50 to 70%
N#Cc1cc(Cl)cc2c1C[C@H](N1CCNCC1)[C@H]2Oc1ccc(S(=O)(=O)N[C@@H]2CCN(CCOCCNC(=O)NCCCCNC(=O)NCCOCCN3CC[C@@H](NS(=O)(=O)c4ccc(O[C@H]5c6cc(Cl)cc(C#N)c6C[C@@H]5N5CCNCC5)c(F)c4)C3)C2)cc1F [Example 109, 4-([(1S,2S)-6-Chloro-4-cyano-2-(piperazin-1-yl)-2,3-dihydro-1H-inden-1-yl]oxy)-N—[(R)-1-(20-[(R)-3-[(4-([(1S,2S)-6-chloro-4-cyano-2-(piperazin-1-yl)-2,3-dihydro-1H-inden-1-yl]oxy)-3-fluorophenyl)sulfonamide)pyrrolidin-1-yl]-7,14-dioxo-3,18-dioxa-6,8,13,15-tetraazaicosyl)pyrrolidin-3-yl]-3-fluorobenzenesulfonamide; tetra(trifluoroacetate)]	> 70	–
N#Cc1cc(Cl)cc2c1C[C@H](N1CCNCC1)[C@H]2Oc1ccc(S(=O)(=O)N[C@H]2CCN(CCOCCNC(=O)NCCCCNC(=O)NCCOCCN3CC[C@H](NS(=O)(=O)c4ccc(O[C@H]5c6cc(Cl)cc(C#N)c6C[C@@H]5N5CCNCC5)c(F)c4)C3)C2)cc1F [Example 110, 4-([(1S,2S)-6-Chloro-4-cyano-2-(piperazin-1-yl)-2,3-dihydro-1H-inden-1-yl]oxy)-N—[(S)-1-(20-[(S)-3-[(4-([(1S,2S)-6-chloro-4-cyano-2-(piperazin-1-yl)-2,3-dihydro-1H-inden-1-yl]oxy)-3-fluorophenyl)sulfonamide)pyrrolidin-1-yl]-7,14-dioxo-3,18-dioxa-6,8,13,15-tetraazaicosyl)pyrrolidin-3-yl]-3-fluorobenzenesulfonamide; tetra(trifluoroacetate)]	> 70	–
N#Cc1cc(Cl)cc2c1C[C@H](N1CCNCC1)[C@H]2Oc1ccc(S(=O)(=O)NC2CCN(C(=O)CCCNC(=O)NCCCCNC(=O)NCCCC(=O)N3CCC(NS(=O)(=O)c4ccc(O[C@H]5c6cc(Cl)cc(C#N)c6C[C@@H]5N5CCNCC5)cc4)CC3)CC2)cc1 [Example 115]	> 70	–
CN(C)[C@H]1CCCN([C@H]2Cc3c(C#N)cc(Cl)cc3[C@@H]2Oc2ccc(S(=O)(=O)NCCOCCOCCNC(=O)NCCCCNC(=O)NCCOCCOCCNS(=O)(=O)c3ccc(O[C@H]4c5cc(Cl)cc(C#N)c5C[C@@H]4N4CCC[C@H](N(C)C)C4)cc3)cc2)C1 [Example 122, 4-([(1S,2S)-6-Chloro-4-cyano-2-[(S)-3-(dimethylamino)piperidin-1-yl]-2,3-dihydro-1H-inden-1-yl]oxy)-N-[26-([4-([(1S,2S)-6-chloro-4-cyano-2-[(S)-3-(dimethylamino)piperidin-1-yl]-2,3-dihydro-1H-inden-1-yl]oxy)phenyl]sulfonamido)-10,17-dioxo-3,6,21,24-tetraoxa-9,11,16,18-tetraazahexacosyl]benzenesulfonamide]	> 70	–
N#Cc1cc(Cl)cc2c1C[C@H](N1CCNCC1)[C@H]2Oc1ccc(S(=O)(=O)NC2CCN(CCOCCNC(=O)NCCCCNC(=O)NCCOCCN3CCC(NS(=O)(=O)c4ccc(O[C@H]5c6cc(Cl)cc(C#N)c6C[C@@H]5N5CCNCC5)cc4)CC3)CC2)cc1 [Example 123, 4-([(1S,2S)-6-Chloro-4-cyano-2-(piperazin-1-yl)-2,3-dihydro-1H-inden-1-yl]oxy)-N-[1-(20-[4-([4-([(1S,2S)-6-chloro-4-cyano-2-(piperazin-1-yl)-2,3-dihydro-1H-inden-1-yl]oxy)phenyl]sulfonamide]piperidin-1-yl)-7,14-dioxo-3,18-dioxa-6,8,13,15-tetraazaicosyl]piperidin-4-yl)benzenesulfonamide]	> 70	–
N#Cc1cc(Cl)cc2c1C[C@H](N1CCCNCC1)[C@H]2Oc1ccc(S(=O)(=O)N[C@H]2CCN(CCOCCNC(=O)NCCCCNC(=O)NCCOCCN3CC[C@H](NS(=O)(=O)c4ccc(O[C@H]5c6cc(Cl)cc(C#N)c6C[C@@H]5N5CCCNCC5)cc4)C3)C2)cc1 [Example 126, 4-([(1S,2S)-6-Chloro-4-cyano-2-(1,4-diazepan-1-yl)-2,3-dihydro-1H-inden-1-yl]oxy)-N—[(S)-1-(20-[(S)-3-([4-([(1S,2S)-6-chloro-4-cyano-2-(1,4-diazepan-1-yl)-2,3-dihydro-1H-inden-1-yl]oxy)phenyl]sulfonamido)pyrrolidin-1-yl]-7,14-dioxo-3,18-dioxa-6,8,13,15-tetraazaicosyl)pyrrolidin-3-yl]benzenesulfonamide]	< 50	–
